Measurements reported in article PMC10518340, “Secreted LRPAP1 binds and triggers IFNAR1 degradation to facilitate virus evasion from cellular innate immunity” (Signal Transduction and Targeted Therapy, 2023).
“Also recorded” adds a separate entry of the source.

Columns and labels:
IFNAR1 [1] = test: Effect of lysosome / proteasome inhibitors on LRPAP1-induced IFNAR1 reduction, HEK-293T cells; settings: 4 h, MA 20 mM; for effect on LRPAP1-induced IFNAR1 reduction: bafilomycin 1 μM, MG132 40 μM, leupeptin 50 μM
LRPAP1 [2] = format: cell-based, human
IFNAR1 [3] = test: IFNAR1 protein level, immunoblot, HEK-293T cells; format: cell-based, human
LRP1 = format: cell-based, human
LRPAP1 [4] = format: cell-based, human; remark: listed apart in the source
IFNAR1 [5] = test: IFNAR1 and LRPAP1 in membrane and cytosol fractions, HEK-293T cells; format: cell-based, human; settings: 200 nM, 1 min to 10 min
Procedure: Then proteins were subjected to Western blotting. […] Hes1 (Abcam, ab71559).
(§1) Tissues were washed twice with PBS and made into homogenate by 2 ml grinder. Membrane proteins were separated from cytosol protein extraction by using the protocol of membrane protein extraction kit (89842, Thermo).

IFNAR1 [6] = test: IFNAR1 phosphorylation immunoblot, HEK-293T cells; format: cell-based, human; settings: extracellular rLRPAP1, 1 h
[7] = test system: extracellular domain of IFNAR1; test: Pull-down / co-immunoprecipitation of LRPAP1 with IFNAR1; format: binding; settings: Residues 1–436
Procedure: The interaction of LRPAP1, LRP1 and IFNAR1 was examined by immunoprecipitation using a protocol described as followed. HEK293T cells were cultured at around 90% confluence in a 100 mm tissue culture dish. Cells were washed with 10 ml of PBS and harvested in 0.5 ml of ice-cold lysis buffer ([…], pH 7.4, 1% SDS, 1% NP-40) and Protease Cocktail (Roche) and PhoSTOP (Roche). The total extract was pre-cleared with 10 μg normal rabbit IgG (Cell signaling, 2729 S) and 20 μl of protein A/G plus-agarose (Santa Cruz Biotechnology) at 4 °C on a rotor for 1 h. After gently removed protein A/G agarose beads by centrifugation at 500 rcf for 2 min, 0.2 mg of total extract was immunoprecipitated with the indicated antibodies overnight at 4 °C on a rotor. Approximately 20 μl of protein A/G plus-agarose (Santa Cruz Biotechnology) was added at 4 °C for one hour. Then, the beads were washed three times with washing buffer (lysis buffer contained 0.1% NP-40). The pellet was suspended with 40 μl PBS and 10 μl of 5× SDS-PAGE loading buffer and the samples were boiled for 10 min.
The interaction of LRPAP1, LRP1 and IFNAR1 was examined by immunoprecipitation using a protocol described as followed. HEK293T cells were cultured at around 90% confluence in a 100 mm tissue culture dish. […]

IFNAR1 [8] = test: LRPAP1 stimulated mouse brain ex vivo, membrane IFNAR1 immunoblot; parameters: species or system C57BL/6 mouse; settings: 200 nM, ACSF, 1 h
Procedure: as §1

EV71 [9] = test: EV71 entry and uncoating, HEK-293T cells; format: cell-based; settings: pre-treated on ice 1 h, EV71 MOI 50, within 1 h
EV71 [10] = test: EV71 infection of RD cells (viral RNA, titer, viral protein, CPE)
EV71 [11] = test: EV71 infection of newborn C57BL/6 mice; format: in vivo
Procedure: The C57BL/6 mice were purchased and were bred in the City University of Hong Kong. All animal experiment protocols were approved by the Ethics Committee of City University of Hong Kong with the license from Department of Health, Hong Kong (18-69 in DH/SHS/8/2/5 Pt.3). The studies were performed in accordance with the approved protocol. […] The neurological status and behavior of each mouse was measured every day. On day 7, mice were sacrificed, and the intestine and blood were collected for viral testing.

HCoV-OC43 = HCoV-OC43 infection of RD cells (viral RNA, TCID50, CPE); settings: pre-treated 1 h (or siRNA 24 h), MOI 1, 72 h
IFNAR1 [12] = test: IFNAR1 protein level, immunoblot / immunofluorescence, RD cells; format: cell-based; settings: RD cells, 200 nM, 1 h
IFNAR1 [13] = test: Flow cytometry, cell surface IFNAR1 on 4T1 cells; format: cell-based, murine; settings: live 4T1 cells, 200 nM
Procedure: (§2) The surface IFNAR1 was monitored by flow cytometry as previous described.[60] Briefly, murine breast cancer cells (4T1) were stained with APC-conjugated IFNAR1 (Biolegend #127314, 1:100) on ice for 30 min. […] Fluorescence-activated cells were then sorted and analyzed by Beckman Coulter CytoFLEX S Flow cytometer ([…]). The result was analyzed by FlowJo (version 10.5.3).
as §2, with “described^63.” for “described.[60]”

IFNAR1 [14] = test: IFNAR1 endocytosis, EEA1 immunofluorescence, HEK-293T cells; format: cell-based, human; settings: 200 nM, 1 h
Procedure: Cellular expression of IFNAR1, viral protein VP1 and LRPAP1 at HEK-293T cells with and without the stimulation of EV71, the recombinant LRPAP1, and overexpression of LRPAP1 or 2A, were examined by the following protocol. Briefly, HEK-293T cells were washed twice with PBS and fixed with 4% paraformaldehyde for 20 min. Afterwards, cells were incubated with blocking buffer (10% (v/v) FBS, 1% (v/v) BSA, and 0.1% (v/v) Triton in PBS) for 2 h. Cells were then incubated with specific antibodies. […] After washing with PBST (PBS + 0.1% Tween-20) for 3 times, cells were labeled with Alexa Fluor 488 (green), or Alexa Fluor 594 (red) conjugated secondary antibody (dilution of 1:1000) (Life Technologies) for 1 h at 4 °C with shaking. After three times washing with PBST (PBS + 0.1% Tween-20), cells were followed by nuclei staining with DAPI (0.5 μg/ml) for 5 min at room temperature. Finally, cells were mounted with Prolong Gold Antifade Reagent on slides. Images were taken by Carl Zeiss LSM 880 confocal microscope using 63× oil objective and analyzed by ZEN software.

Molecule: CO/C1=C\C(C)=C\[C@@H](C)[C@@H](O)[C@@H](C)C/C(C)=C/C=C/[C@H](OC)[C@@H]([C@@H](C)[C@@H](O)[C@H](C)[C@@]2(O)C[C@@H](O)[C@H](C)[C@@H](C(C)C)O2)OC1=O [bafilomycin]
- effect on LRPAP1-induced IFNAR1 reduction (IFNAR1 [1]): prohibited by lysosome inhibitors

Molecule: CN [methylamine]
- effect on LRPAP1-induced IFNAR1 reduction (IFNAR1 [1]): prohibited by lysosome inhibitors
- protection of IFNAR1 from degradation (IFNAR1 [1]; ubiquitin, LRPAP1, IFNAR1 expressed): IFNAR1 was protected from degradation

Molecule: SARS-CoV-2 3CL^pro: SARS-CoV-2 main protease, transfected pCMV-SARS-CoV-2-3CL
- LRPAP1 expression (LRPAP1 [2]): increased LRPAP1 expression
- IFNAR1 level (IFNAR1 [3]): decreased IFNAR1 level; also recorded: expression of IFNAR1 decreased
- LRP1 protein level (LRP1): decreased protein level
- extracellular LRPAP1 level (LRPAP1 [4]): extracellular LRPAP1 increase

Molecule: rLRPAP1: recombinant LRPAP1 from pQTEV-LRPAP1 expressed in E. coli
- IFNAR1 level in membrane / cytosol fractions (IFNAR1 [5]): IFNAR1 consistently decreased with time
- rLRPAP1 enrichment in membrane fractions (IFNAR1 [5]): gradually enriched in the membrane fractions
- phosphorylated IFNAR1 (IFNAR1 [6]): promoted in an extracellular rLRPAP1 dose-dependent manner
- direct binding to IFNAR1 extracellular domain (pull-down) [7]: directly bound with the extracellular domain of IFNAR1
- membrane IFNAR1 in mouse brain (IFNAR1 [8]): significantly lower
- EV71 entry and uncoating rate (EV71 [9]): promoted EV71 entry and uncoating rate within 1 h
- EV71 infection (EV71 [10]; RD cells, 9 h, plasmid, recombinant protein or peptide pre-treatment, viral RNA / titer): significantly promoted EV71 infection
- EV71 induced CPE (EV71 [10]; antibody added 3 h post infection (MOI 10, 6 h), rLRPAP1 200 nM pre-treatment 1 h): significantly promoted EV71 infection and EV71-induced CPE
- survival rate (EV71 [11]; co-injected EV71 and rLRPAP1, 7 days): 75%
- mice with severe neurological deficits (EV71 [11]; co-injected EV71 and rLRPAP1, after two injections (Day 3)): 50%
- physical condition of mice (EV71 [11]; co-injected EV71 and rLRPAP1, i.p. twice per week): severe physical disharmony
- EV71 infection and disease in mice (EV71 [11]; i.p. EV71 (2*10^8 PFU) + rLRPAP1 (200 nM) twice per week): potently enhanced EV71 infection and exacerbated the disease in newborn C57BL/6 mice
- IFNAR1 level on rLRPAP1 treatment (IFNAR1 [3]; 50 nM, 1 h): marginal detectable level
- IFNAR1 level on rLRPAP1 treatment (IFNAR1 [3]; 200 nM, 1 h): undetectable level
- IFNAR1 level on rLRPAP1 treatment (IFNAR1 [3]; within 15 min, dose-dependent): rapidly decreased within 15 min in a rLRPAP1 dose-dependent manner
- HCoV-OC43 intracellular RNA level (HCoV-OC43): increased significantly
- HCoV-OC43 viral titer (TCID50) (HCoV-OC43): increased significantly
- IFNAR1 in the cell membrane (immunofluorescence) (IFNAR1 [12]): sharply decreased in the cell membrane
- cell surface IFNAR1 (IFNAR1 [13]): significantly reduced cell surface IFNAR1
- IFNAR1 endocytosis (EEA1 level) (IFNAR1 [14]): increased level of early endosome marker (EEA1)
